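Values below derive from 48-hour exposures of cells grown in 96-well plates, with endpoints linearly interpolated between the two concentrations bracketing the appropriate inhibition level. GI50 is the concentration that inhibits growth by half.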 The source made the active and inactive calls. Cut-off read from the data, not from the text of the source: active = GI50 up to about 1.1 µM and inactive = higher.
What was measured:
Assay in all cases: inhibition of tumour cell growth, NCI panel, 48 h
LOX IMVI = tested on: LOX IMVI
U-251 = tested on: U-251
SW-620 = tested on: SW-620
DU-145 = tested on: DU-145
BT-549 = tested on: BT-549
SK-OV-3 = tested on: SK-OV-3
SNB-19 = tested on: SNB-19
HOP-62 = tested on: HOP-62
MDA-MB-435 = tested on: MDA-MB-435
Malme-3M = tested on: Malme-3M
MDA-MB-231 = tested on: MDA-MB-231
HCC 2998 = tested on: HCC 2998
A549 = tested on: A549
IGROV-1 = tested on: IGROV-1
UACC-62 = tested on: UACC-62
M14 = tested on: M14
UACC-257 = tested on: UACC-257
OVCAR-8 = tested on: OVCAR-8
NCI-H522 = tested on: NCI-H522
NCI-H226 = tested on: NCI-H226

SMILES | GI50 (LOX IMVI) | GI50 (U-251) | GI50 (SW-620) | GI50 (DU-145) | GI50 (BT-549) | GI50 (SK-OV-3) | GI50 (SNB-19) | GI50 (HOP-62) | GI50 (MDA-MB-435) | GI50 (Malme-3M) | GI50 (MDA-MB-231) | GI50 (HCC 2998) | GI50 (A549) | GI50 (IGROV-1) | GI50 (UACC-62) | GI50 (M14) | GI50 (UACC-257) | GI50 (OVCAR-8) | GI50 (NCI-H522) | GI50 (NCI-H226)
CCOC(=O)c1c(-c2ccc(Cl)cc2)c(C#N)c(=S)n(C2OC(COC(C)=O)C(OC(C)=O)C(OC(C)=O)C2OC(C)=O)c1-c1ccccc1 (stereo not given) | > 100 µM (inactive) | > 100 µM (inactive) | > 100 µM (inactive) | > 100 µM (inactive) | > 100 µM (inactive) | > 100 µM (inactive) | > 100 µM (inactive) | > 100 µM (inactive) | > 100 µM (inactive) | > 100 µM (inactive) | > 100 µM (inactive) | > 100 µM (inactive) | > 100 µM (inactive) | > 100 µM (inactive) | > 100 µM (inactive) | 57.5 µM (inactive) | > 100 µM (inactive) |  |  | 
O=C1/C(=C/c2ccncc2)C(n2cccc2)c2c(Br)sc(Br)c21 (stereo not given) | 1.93 µM (inactive) | 2.11 µM (inactive) | 1.57 µM (inactive) | 3.56 µM (inactive) | 3.07 µM (inactive) | 7.78 µM (inactive) | 15.5 µM (inactive) | 3.03 µM (inactive) | 2.11 µM (inactive) | 3.02 µM (inactive) | 2.25 µM (inactive) | 1.88 µM (inactive) | 14.9 µM (inactive) | 1.96 µM (inactive) | 2.94 µM (inactive) | 0.263 µM (active) | 2.1 µM (inactive) | 2.28 µM (inactive) | 11.7 µM (inactive) | 
C1CSCCSCCSCCSCCS1 | > 100 µM (inactive) | > 100 µM (inactive) | > 100 µM (inactive) | > 100 µM (inactive) | > 100 µM (inactive) | > 100 µM (inactive) | > 100 µM (inactive) | > 100 µM (inactive) | > 100 µM (inactive) |  | > 100 µM (inactive) | > 100 µM (inactive) | > 100 µM (inactive) | > 100 µM (inactive) | > 100 µM (inactive) | > 100 µM (inactive) | > 100 µM (inactive) | > 100 µM (inactive) | > 100 µM (inactive) | > 100 µM (inactive)
COc1ccccc1/C=C/C1=NN(c2cccc(S(=O)(=O)O)c2)C2(C1)SCC(=O)N2c1nc2ccccc2s1 (stereo not given) | 53.5 µM (inactive) | 52.6 µM (inactive) | > 100 µM (inactive) | 89.7 µM (inactive) | 56.1 µM (inactive) |  | > 100 µM (inactive) |  | > 100 µM (inactive) | > 100 µM (inactive) | > 100 µM (inactive) | 60.3 µM (inactive) | 84.3 µM (inactive) | 21.4 µM (inactive) | 53.8 µM (inactive) | > 100 µM (inactive) | 97.7 µM (inactive) | 53.2 µM (inactive) | 36.7 µM (inactive) | 31.7 µM (inactive)
O=C(/C=C/c1ccccc1)Oc1cccc(Br)c1 | 29.7 µM (inactive) | 29.5 µM (inactive) | 44.2 µM (inactive) | 89.9 µM (inactive) | > 100 µM (inactive) | > 100 µM (inactive) | 31.7 µM (inactive) | > 100 µM (inactive) | > 100 µM (inactive) |  | > 100 µM (inactive) | 35.7 µM (inactive) | 69.8 µM (inactive) | 17.7 µM (inactive) | 74 µM (inactive) | 78.7 µM (inactive) | > 100 µM (inactive) | 60.4 µM (inactive) | 5.68 µM (inactive) | > 100 µM (inactive)
CC(C)(C)[Si](C)(C)OCCc1ccccc1C1CC2(S(=O)(=O)c3ccccc3)ON1CC2S(=O)(=O)c1ccccc1 (stereo not given) |  | > 100 µM (inactive) | > 100 µM (inactive) | > 100 µM (inactive) | > 100 µM (inactive) | > 100 µM (inactive) | > 100 µM (inactive) | > 100 µM (inactive) | > 100 µM (inactive) |  | > 100 µM (inactive) | > 100 µM (inactive) | > 100 µM (inactive) | > 100 µM (inactive) | > 100 µM (inactive) | > 100 µM (inactive) | > 100 µM (inactive) | > 100 µM (inactive) |  | > 100 µM (inactive)
CC1=CC(=O)/C(=C/NC(=S)c2ccccc2)C(=O)O1 | > 100 µM (inactive) | > 100 µM (inactive) | > 100 µM (inactive) | > 100 µM (inactive) | > 100 µM (inactive) | > 100 µM (inactive) | > 100 µM (inactive) | > 100 µM (inactive) | > 100 µM (inactive) |  | > 100 µM (inactive) | > 100 µM (inactive) | > 100 µM (inactive) | > 100 µM (inactive) | > 100 µM (inactive) | > 100 µM (inactive) | > 100 µM (inactive) | > 100 µM (inactive) |  | > 100 µM (inactive)
CN(C)c1nc(NC23CC4CC(CC(C4)C2)C3)nc(N(C)C)n1 | 3.36 µM (inactive) | 9.1 µM (inactive) | 12.3 µM (inactive) | 16.4 µM (inactive) | 21.4 µM (inactive) | > 26.1 µM (inactive) | 14.9 µM (inactive) | 15.7 µM (inactive) | 21.4 µM (inactive) | 33.1 µM (inactive) | 9.98 µM (inactive) | > 27.5 µM (inactive) | 8.59 µM (inactive) |  | 25.8 µM (inactive) | 13.1 µM (inactive) | 31.3 µM (inactive) | > 53.3 µM (inactive) |  | 20.4 µM (inactive)

Source: ChEMBL document CHEMBL1201862, “PubChem BioAssay data set” (2004)
